Laboratory results as given in patent EP1171107B1, “USE OF A PHARMACEUTICAL COMPOSITION IN THE MANUFACTURE OF A MEDICAMENT FOR THE TREATMENT OF PATHOLOGICAL CONDITIONS OF THE EYE CAUSED BY BACTERIA, VIRUSES, FUNGI, YEASTS AND PROTOZOA” (Dr. GERHARD MANN chem.-pharm. Fabrik GmbH, priority 1999, dated 2000).
Structures can show the parent of a compound that is named as a salt.

Experiments:
Type in all cases: cell-based
S.aureus [1] = experiment: Qualitative examination: enrichment of the inoculated test preparation in broth
From the text: (§1) Escherichia (E.coli) Staphylococcus (S.aureus) Streptococcus (Sc.) Pneumoniae Pseudomonas (P.aeruginosa) Staphylococcus (S. epidermidis) Haemophilus (H. influenzae)
(§2) Die verschiedenen Testkeime wurde jeweils aus einem Lyophilisat in NaCl-Peptonpuffer homogenisiert und auf Caseinpepton-Sojymehlpepton. (Caso-) Agar (Fa. bioMérieux; Art. Nr. 43019) bez. Kochblut-Agar (Fa. bioMérieux; Art. Nr. 43109) subkultiviert. Die Teststämme wurden vor Versuchsbeginn durch Erstellen eines biochemischen Profils mittels ATB/Vitek-System (Fa. bioMérieux, Nürtingen) auf Reinheit und Identität überprüft.
(§3) Die verschiedenen Testsubstanzen a. bis j. wurden jeweils zu 5 ml in sterile Zentrifugenröhrchen abgefüllt und mit ca. 10^5 KBE^*/ml (* = koloniebildende Einheiten) der oben genannten Testkeime kontaminiert. Pro Substanz wurde für jeden Testkeim und jede zu prüfende Testzeit ein separater Ansatz angeimpft, d.h.10 Testsubstanzen zu jeweils 7 Testzeiten und 6 Testkeime (= insgesamt 502 Testansätze). […] Der Überstand wurde dekantiert und das Pellet in 5 ml NaCl Peptonpuffer aufgenommen und resuspendiert. Die Suspension wurde erneut 10 Minuten bei 3000 rpm abzentrifugiert und 5 ml NaCl-Peptonpuffer aufgenommen und mittels Vortex homogenisiert.
(§4) Jeweils 2 ml der Testansätze wurden in 20 ml Caso-Bouillon oder für H. influenzae, in Fildes-Medium der Firma Becton Dickinson, ARt. Nr. 0349-739, angereichert und ebenfalls maximal 4 Tage bei 33± 2°C bebrütet. Ein negatives Ergebnis der Anreicherung belegt die Elimination der inokulierten Keime.

E.coli [2] = experiment: as above
From the text: as §1, §2, §3, §4

S.epidermidis [3] = experiment: as above
From the text: as §1, §2, §3, §4

Sc. pneumoniae [4] = experiment: as above
From the text: as §1, §2, §3, §4

H.influenzae [5] = experiment: as above
From the text: as §1, §2
(§5) Die verschiedenen Testsubstanzen a. bis j. wurden jeweils zu 5 ml in sterile Zentrifugenröhrchen abgefüllt und mit ca. 10^5 KBE^*/ml (* = koloniebildende Einheiten) der oben genannten Testkeime kontaminiert. Pro Substanz wurde für jeden Testkeim und jede zu prüfende Testzeit ein separater Ansatz angeimpft, d.h.10 Testsubstanzen zu jeweils 7 Testzeiten und 6 Testkeime (= insgesamt 502 Testansätze). Nach 2, 6, 8, 24, 32, 48 und 72 Stunden wurde dann der jeweilige Testansatz 10 Minuten bei 3000 rpm abzentrifugiert. Der Überstand wurde dekantiert und das Pellet in 5 ml NaCl Peptonpuffer aufgenommen und resuspendiert. Die Suspension wurde erneut 10 Minuten bei 3000 rpm abzentrifugiert und 5 ml NaCl-Peptonpuffer aufgenommen und mittels Vortex homogenisiert.
as §4

P.aeruginosa = experiment: as above
From the text: as §1, §2, §5, §4

S.epidermidis [6] = experiment: Quantitative germ count (re-isolation, surface method) after inoculating the test preparation; conditions: Ausgangskeimzahl 2,1 x 10^5 KBE/ml
From the text: as §1, §2
(§6) Die Ausgangskeimzahl wurde im Oberflächenverfahren mit Hilfe eines Spiralplaters (Fa. Meintrup, Lähden) ermittelt und ist im einzelnen den Tabellen 1-12 zu entnehmen.
as §5
(§7) Die anschließende Keimzahlbestimmung erfolgte im Oberflächenverfahren durch Ausspiralisieren eines […] Aliquots auf Caso-Agar bzw. für H. influenzae auf Kochblut-Agar. Die Platten wurden bei 33±2°C für max. 4 Tage bebrütet. Die Nachweisgrenze des Verfahrens liegt bei 100 KBE/ml.

H.influenzae [7] = experiment: as above; conditions: Ausgangskeimzahl 2,8 x 10^5 KBE/ml
From the text: as §1, §2, §6, §3, §7

S.aureus [8] = experiment: as above; conditions: Ausgangskeimzahl 2,6 x 10^5 KBE/ml
From the text: as §1, §2, §6, §3, §7

E.coli [9] = experiment: as above; conditions: Ausgangskeimzahl 2,7 x 10^5 KBE/ml
From the text: as §1, §2, §6, §3, §7

Sc. pneumoniae [10] = experiment: as above; conditions: Ausgangskeimzahl 3,7 x 10^5 KBE/ml
From the text: as §1, §2, §6, §3, §7

O=C(O)c1cn(C2CC2)c2cc(N3CCNCC3)c(F)cc2c1=O [Ciprofloxacin HCl 0,35 Gew.-%, Ciprofloxacin HCl, reference compound]
Ergebnis der Reisolierung qualitiativ (+/-) nach Anreicherung (S.aureus [1]; 2 h after inoculation): +
Ergebnis der Reisolierung qualitiativ (+/-) nach Anreicherung (S.aureus [1]; 4 h after inoculation): +
Ergebnis der Reisolierung qualitiativ (+/-) nach Anreicherung (S.aureus [1]; 6 h after inoculation): +
Ergebnis der Reisolierung qualitiativ (+/-) nach Anreicherung (S.aureus [1]; 8 h after inoculation): +
Ergebnis der Reisolierung qualitiativ (+/-) nach Anreicherung (S.aureus [1]; 24 h after inoculation): -
Ergebnis der Reisolierung qualitiativ (+/-) nach Anreicherung (S.aureus [1]; 32 h after inoculation): -
Ergebnis der Reisolierung qualitiativ (+/-) nach Anreicherung (S.aureus [1]; 48 h after inoculation): -
Ergebnis der Reisolierung qualitiativ (+/-) nach Anreicherung (S.aureus [1]; 72 h after inoculation): -
Ergebnis der Reisolierung qualitiativ (+/-) nach Anreicherung (E.coli [2]; 2 h after inoculation): -
Ergebnis der Reisolierung qualitiativ (+/-) nach Anreicherung (E.coli [2]; 4 h after inoculation): -
Ergebnis der Reisolierung qualitiativ (+/-) nach Anreicherung (E.coli [2]; 6 h after inoculation): -
Ergebnis der Reisolierung qualitiativ (+/-) nach Anreicherung (E.coli [2]; 8 h after inoculation): -
Ergebnis der Reisolierung qualitiativ (+/-) nach Anreicherung (E.coli [2]; 24 h after inoculation): -
Ergebnis der Reisolierung qualitiativ (+/-) nach Anreicherung (E.coli [2]; 32 h after inoculation): -
Ergebnis der Reisolierung qualitiativ (+/-) nach Anreicherung (E.coli [2]; 48 h after inoculation): -
Ergebnis der Reisolierung qualitiativ (+/-) nach Anreicherung (E.coli [2]; 72 h after inoculation): -
Ergebnis der Reisolierung qualitiativ (+/-) nach Anreicherung (S.epidermidis [3]; 2 h after inoculation): +
Ergebnis der Reisolierung qualitiativ (+/-) nach Anreicherung (S.epidermidis [3]; 4 h after inoculation): +
Ergebnis der Reisolierung qualitiativ (+/-) nach Anreicherung (S.epidermidis [3]; 6 h after inoculation): +
Ergebnis der Reisolierung qualitiativ (+/-) nach Anreicherung (S.epidermidis [3]; 8 h after inoculation): -
Ergebnis der Reisolierung qualitiativ (+/-) nach Anreicherung (S.epidermidis [3]; 24 h after inoculation): -
Ergebnis der Reisolierung qualitiativ (+/-) nach Anreicherung (S.epidermidis [3]; 32 h after inoculation): -
Ergebnis der Reisolierung qualitiativ (+/-) nach Anreicherung (S.epidermidis [3]; 48 h after inoculation): -
Ergebnis der Reisolierung qualitiativ (+/-) nach Anreicherung (S.epidermidis [3]; 72 h after inoculation): -
Ergebnis der Reisolierung qualitiativ (+/-) nach Anreicherung (Sc. pneumoniae [4]; 2 h after inoculation): -
Ergebnis der Reisolierung qualitiativ (+/-) nach Anreicherung (Sc. pneumoniae [4]; 4 h after inoculation): -
Ergebnis der Reisolierung qualitiativ (+/-) nach Anreicherung (Sc. pneumoniae [4]; 6 h after inoculation): -
Ergebnis der Reisolierung qualitiativ (+/-) nach Anreicherung (Sc. pneumoniae [4]; 8 h after inoculation): -
Ergebnis der Reisolierung qualitiativ (+/-) nach Anreicherung (Sc. pneumoniae [4]; 24 h after inoculation): -
Ergebnis der Reisolierung qualitiativ (+/-) nach Anreicherung (Sc. pneumoniae [4]; 32 h after inoculation): -
Ergebnis der Reisolierung qualitiativ (+/-) nach Anreicherung (Sc. pneumoniae [4]; 48 h after inoculation): -
Ergebnis der Reisolierung qualitiativ (+/-) nach Anreicherung (Sc. pneumoniae [4]; 72 h after inoculation): -
Ergebnis der Reisolierung qualitiativ (+/-) nach Anreicherung (H.influenzae [5]; 2 h after inoculation): -
Ergebnis der Reisolierung qualitiativ (+/-) nach Anreicherung (H.influenzae [5]; 4 h after inoculation): -
Ergebnis der Reisolierung qualitiativ (+/-) nach Anreicherung (H.influenzae [5]; 6 h after inoculation): -
Ergebnis der Reisolierung qualitiativ (+/-) nach Anreicherung (H.influenzae [5]; 8 h after inoculation): -
Ergebnis der Reisolierung qualitiativ (+/-) nach Anreicherung (H.influenzae [5]; 24 h after inoculation): -
Ergebnis der Reisolierung qualitiativ (+/-) nach Anreicherung (H.influenzae [5]; 32 h after inoculation): -
Ergebnis der Reisolierung qualitiativ (+/-) nach Anreicherung (H.influenzae [5]; 48 h after inoculation): -
Ergebnis der Reisolierung qualitiativ (+/-) nach Anreicherung (H.influenzae [5]; 72 h after inoculation): -
Ergebnis der Reisolierung qualitiativ (+/-) nach Anreicherung (P.aeruginosa; 2 h after inoculation): -
Ergebnis der Reisolierung qualitiativ (+/-) nach Anreicherung (P.aeruginosa; 4 h after inoculation): -
Ergebnis der Reisolierung qualitiativ (+/-) nach Anreicherung (P.aeruginosa; 6 h after inoculation): -
Ergebnis der Reisolierung qualitiativ (+/-) nach Anreicherung (P.aeruginosa; 8 h after inoculation): - -
Ergebnis der Reisolierung qualitiativ (+/-) nach Anreicherung (P.aeruginosa; 24 h after inoculation): -
Ergebnis der Reisolierung qualitiativ (+/-) nach Anreicherung (P.aeruginosa; 32 h after inoculation): -
Ergebnis der Reisolierung qualitiativ (+/-) nach Anreicherung (P.aeruginosa; 48 h after inoculation): -
Ergebnis der Reisolierung qualitiativ (+/-) nach Anreicherung (P.aeruginosa; 72 h after inoculation): -
Ergebnis der Reisolierung (in KBE/ml) (S.epidermidis [6]; 2 h after inoculation): <100 KBE/ml
Ergebnis der Reisolierung (in KBE/ml) (S.epidermidis [6]; 4 h after inoculation): <100 KBE/ml
Ergebnis der Reisolierung (in KBE/ml) (S.epidermidis [6]; 6 h after inoculation): <100 KBE/ml
Ergebnis der Reisolierung (in KBE/ml) (S.epidermidis [6]; 8 h after inoculation): <100 KBE/ml
Ergebnis der Reisolierung (in KBE/ml) (S.epidermidis [6]; 24 h after inoculation): <100 KBE/ml
Ergebnis der Reisolierung (in KBE/ml) (S.epidermidis [6]; 32 h after inoculation): <100 KBE/ml
Ergebnis der Reisolierung (in KBE/ml) (S.epidermidis [6]; 48 h after inoculation): <100 KBE/ml
Ergebnis der Reisolierung (in KBE/ml) (S.epidermidis [6]; 72 h after inoculation): <100 KBE/ml
Ergebnis der Reisolierung (in KBE/ml) (H.influenzae [7]; 2 h after inoculation): <100 KBE/ml
Ergebnis der Reisolierung (in KBE/ml) (H.influenzae [7]; 4 h after inoculation): <100 KBE/ml
Ergebnis der Reisolierung (in KBE/ml) (H.influenzae [7]; 6 h after inoculation): <100 KBE/ml
Ergebnis der Reisolierung (in KBE/ml) (H.influenzae [7]; 8 h after inoculation): <100 KBE/ml
Ergebnis der Reisolierung (in KBE/ml) (H.influenzae [7]; 24 h after inoculation): <100 KBE/ml
Ergebnis der Reisolierung (in KBE/ml) (H.influenzae [7]; 32 h after inoculation): <100 KBE/ml
Ergebnis der Reisolierung (in KBE/ml) (H.influenzae [7]; 48 h after inoculation): <100 KBE/ml
Ergebnis der Reisolierung (in KBE/ml) (H.influenzae [7]; 72 h after inoculation): <100 KBE/ml
Ergebnis der Reisolierung (in KBE/ml) (S.aureus [8]; 2 h after inoculation): <100 KBE/ml
Ergebnis der Reisolierung (in KBE/ml) (S.aureus [8]; 4 h after inoculation): <100 KBE/ml
Ergebnis der Reisolierung (in KBE/ml) (S.aureus [8]; 6 h after inoculation): <100 KBE/ml
Ergebnis der Reisolierung (in KBE/ml) (S.aureus [8]; 24 h after inoculation): <100 KBE/ml
Ergebnis der Reisolierung (in KBE/ml) (S.aureus [8]; 32 h after inoculation): <100 KBE/ml
Ergebnis der Reisolierung (in KBE/ml) (S.aureus [8]; 48 h after inoculation): <100 KBE/ml
Ergebnis der Reisolierung (in KBE/ml) (S.aureus [8]; 72 h after inoculation): <100 KBE/ml
Ergebnis der Reisolierung (in KBE/ml) (E.coli [9]; 2 h after inoculation): <100 KBE/ml
Ergebnis der Reisolierung (in KBE/ml) (E.coli [9]; 4 h after inoculation): <100 KBE/ml
Ergebnis der Reisolierung (in KBE/ml) (E.coli [9]; 6 h after inoculation): <100 KBE/ml
Ergebnis der Reisolierung (in KBE/ml) (E.coli [9]; 8 h after inoculation): <100 KBE/ml
Ergebnis der Reisolierung (in KBE/ml) (E.coli [9]; 24 h after inoculation): <100 KBE/ml
Ergebnis der Reisolierung (in KBE/ml) (E.coli [9]; 32 h after inoculation): <100 KBE/ml
Ergebnis der Reisolierung (in KBE/ml) (E.coli [9]; 48 h after inoculation): <100 KBE/ml
Ergebnis der Reisolierung (in KBE/ml) (E.coli [9]; 72 h after inoculation): <100 KBE/ml
Ergebnis der Reisolierung (in KBE/ml) (Sc. pneumoniae [10]; 2 h after inoculation): <100 KBE/ml
Ergebnis der Reisolierung (in KBE/ml) (Sc. pneumoniae [10]; 4 h after inoculation): <100 KBE/ml
Ergebnis der Reisolierung (in KBE/ml) (Sc. pneumoniae [10]; 6 h after inoculation): <100 KBE/ml
Ergebnis der Reisolierung (in KBE/ml) (Sc. pneumoniae [10]; 8 h after inoculation): <100 KBE/ml
Ergebnis der Reisolierung (in KBE/ml) (Sc. pneumoniae [10]; 24 h after inoculation): <100 KBE/ml
Ergebnis der Reisolierung (in KBE/ml) (Sc. pneumoniae [10]; 32 h after inoculation): <100 KBE/ml
Ergebnis der Reisolierung (in KBE/ml) (Sc. pneumoniae [10]; 48 h after inoculation): <100 KBE/ml
Ergebnis der Reisolierung (in KBE/ml) (Sc. pneumoniae [10]; 72 h after inoculation): <100 KBE/ml
